According to PubChem BioAssay (NCI):
Several values for one entry are separate records, joined by “and”; a condition that tells them apart may be missing. Equal values may be shown once.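 All cell lines were grown in 96-well plates and treated with compound for 48 hours. GI50 marks 50% less growth. The concentration for full growth arrest is given as TGI.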

Tests used:
Test in all cases: NCI-60 cell line screen, 48 h
NCI-H23 lung = system: NCI-H23 lung
NCI-H460 lung = system: NCI-H460 lung
NCI-H522 lung = system: NCI-H522 lung
NCI/ADR-RES ovarian = system: NCI/ADR-RES ovarian
OVCAR-3 ovarian = system: OVCAR-3 ovarian
OVCAR-4 ovarian = system: OVCAR-4 ovarian
OVCAR-5 ovarian = system: OVCAR-5 ovarian
OVCAR-8 ovarian = system: OVCAR-8 ovarian
PC-3 prostate = system: PC-3 prostate
RPMI-8226 leukemia = system: RPMI-8226 leukemia
RXF 393 renal = system: RXF 393 renal
SF-268 CNS = system: SF-268 CNS
SF-295 CNS = system: SF-295 CNS
SF-539 CNS = system: SF-539 CNS
SK-MEL-2 melanoma = system: SK-MEL-2 melanoma
SK-MEL-28 melanoma = system: SK-MEL-28 melanoma
SK-MEL-5 melanoma = system: SK-MEL-5 melanoma
SK-OV-3 ovarian = system: SK-OV-3 ovarian
SN12C renal = system: SN12C renal
SNB-19 CNS = system: SNB-19 CNS
SNB-75 CNS = system: SNB-75 CNS
SR leukemia = system: SR leukemia
SW-620 colon = system: SW-620 colon
T-47D breast = system: T-47D breast
TK-10 renal = system: TK-10 renal
U251 CNS = system: U251 CNS
UACC-257 melanoma = system: UACC-257 melanoma
UACC-62 melanoma = system: UACC-62 melanoma
UO-31 renal = system: UO-31 renal

Question: What does the source list for C[C@@]1(C(=O)Nc2ccc(F)nc2)CCCN1c1nc(Nc2cc(C3CC3)[nH]n2)c2cccn2n1?
Answer: GI50 (NCI-H23 lung): 0.391 µM and 0.794 µM; TGI (NCI-H23 lung): > 4.93 µM and 19.8 µM; GI50 (NCI-H460 lung): 0.184 µM and 0.288 µM; TGI (NCI-H460 lung): > 3.07 µM and 14.3 µM; GI50 (NCI-H522 lung): 1.19 µM and 4 µM; TGI (NCI-H522 lung): > 2.54 µM and 20.9 µM; GI50 (NCI/ADR-RES ovarian): 3.99 µM and 4.99 µM; TGI (NCI/ADR-RES ovarian): > 10 µM and 25.9 µM; GI50 (OVCAR-3 ovarian): 8.73 µM; TGI (OVCAR-3 ovarian): > 3.4 µM and 22.3 µM; GI50 (OVCAR-4 ovarian): 1.34 µM and 3.2 µM; TGI (OVCAR-4 ovarian): > 3.38 µM and 26.7 µM; GI50 (OVCAR-5 ovarian): 0.225 µM and 0.455 µM; TGI (OVCAR-5 ovarian): > 2.77 µM and 15.5 µM; GI50 (OVCAR-8 ovarian): 1.77 µM and 5.99 µM; TGI (OVCAR-8 ovarian): > 10 µM and 21.1 µM; GI50 (PC-3 prostate): 0.989 µM and 1.41 µM; TGI (PC-3 prostate): > 7.62 µM and 23.5 µM; GI50 (RPMI-8226 leukemia): 7.86 µM; TGI (RPMI-8226 leukemia): > 2.89 µM and 42.1 µM; GI50 (RXF 393 renal): 0.396 µM and 1.44 µM; TGI (RXF 393 renal): 1.26 µM and 7.11 µM; GI50 (SF-268 CNS): 0.631 µM and 2.56 µM; TGI (SF-268 CNS): > 2.57 µM and 15.6 µM; GI50 (SF-295 CNS): 0.472 µM and 0.841 µM; TGI (SF-295 CNS): 3.2 µM and 6.78 µM; GI50 (SF-539 CNS): 0.82 µM and 2.47 µM; TGI (SF-539 CNS): > 2.45 µM and 16.3 µM; GI50 (SK-MEL-2 melanoma): 0.631 µM and 2.64 µM; TGI (SK-MEL-2 melanoma): > 2.29 µM and 18.8 µM; GI50 (SK-MEL-28 melanoma): 11.8 µM; TGI (SK-MEL-28 melanoma): > 3.92 µM and 25.7 µM; GI50 (SK-MEL-5 melanoma): 3.82 µM; TGI (SK-MEL-5 melanoma): > 2.15 µM and 17.5 µM; GI50 (SK-OV-3 ovarian): 0.95 µM and 6.12 µM; TGI (SK-OV-3 ovarian): > 4.91 µM and 22.2 µM; GI50 (SN12C renal): 0.877 µM and 3.55 µM; TGI (SN12C renal): > 6.62 µM and 18.3 µM; GI50 (SNB-19 CNS): 12.3 µM; TGI (SNB-19 CNS): > 10 µM and 37.3 µM; GI50 (SNB-75 CNS): 0.138 µM and 1.24 µM; TGI (SR leukemia): > 2.53 µM and 15.7 µM; GI50 (SW-620 colon): 0.214 µM and 0.342 µM; TGI (SW-620 colon): > 10 µM and 23.4 µM; GI50 (T-47D breast): 1.2 µM and 7.47 µM; TGI (T-47D breast): > 3.53 µM and 27.2 µM; GI50 (TK-10 renal): 1.57 µM and 0.593 µM; TGI (TK-10 renal): > 10 µM and 8.38 µM; GI50 (U251 CNS): 1.74 µM and 4.92 µM; TGI (U251 CNS): > 7.39 µM and 20.6 µM; GI50 (UACC-257 melanoma): 0.211 µM and 0.12 µM; TGI (UACC-257 melanoma): > 4.46 µM and 16.5 µM; GI50 (UACC-62 melanoma): 0.388 µM and 2.1 µM; TGI (UACC-62 melanoma): > 2.12 µM and 18.7 µM; GI50 (UO-31 renal): 0.458 µM and 2.78 µM; TGI (UO-31 renal): > 4.38 µM and 16 µM
